Experimental data published in the supplement of paper PMC11451515.

System: SEM cells
Experiment: cell viability relative to DMSO control; higher = less cytotoxic
Conditions: 48 h
Method in brief: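 Viability values are per-plate percentages of DMSO wells, with background from cell-free wells. Library compounds in DMSO were pin-dosed, in an 11-point threefold series from 47 μM to 0.79 nM, onto NOMO1 or SEM (500 cells/well) or P12-Ichikawa (1000 cells/well) leukemia cells in 1536-well plates (5 μl). Those cells had been adapted for at least four passages in each medium, and CellTiter-Glo One luminescence was read after 48 h at 37°C.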

[1] = HPLM + 10% dialyzed FBS, 0.000781 µM
[2] = HPLM + 10% dialyzed FBS, 0.00234 µM
[3] = HPLM + 10% dialyzed FBS, 0.00702 µM
[4] = HPLM + 10% dialyzed FBS, 0.0211 µM
[5] = HPLM + 10% dialyzed FBS, 0.0632 µM
[6] = HPLM + 10% dialyzed FBS, 0.19 µM
[7] = HPLM + 10% dialyzed FBS, 0.569 µM
[8] = HPLM + 10% dialyzed FBS, 1.71 µM
[9] = HPLM + 10% dialyzed FBS, 5.12 µM
[10] = HPLM + 10% dialyzed FBS, 15.4 µM
[11] = HPLM + 10% dialyzed FBS, 46.1 µM
[12] = RPMI 5 mM glucose + 10% FBS, 0.000781 µM
[13] = RPMI 5 mM glucose + 10% FBS, 0.00234 µM
[14] = RPMI 5 mM glucose + 10% FBS, 0.00702 µM
[15] = RPMI 5 mM glucose + 10% FBS, 0.0211 µM
[16] = RPMI 5 mM glucose + 10% FBS, 0.0632 µM
[17] = RPMI 5 mM glucose + 10% FBS, 0.19 µM
[18] = RPMI 5 mM glucose + 10% FBS, 0.569 µM
[19] = RPMI 5 mM glucose + 10% FBS, 1.71 µM
[20] = RPMI 5 mM glucose + 10% FBS, 5.12 µM
[21] = RPMI 5 mM glucose + 10% FBS, 15.4 µM
[22] = RPMI 5 mM glucose + 10% FBS, 46.1 µM
[23] = RPMI 5 mM glucose + 10% dialyzed FBS, 0.000781 µM
[24] = RPMI 5 mM glucose + 10% dialyzed FBS, 0.00234 µM
[25] = RPMI 5 mM glucose + 10% dialyzed FBS, 0.00702 µM
[26] = RPMI 5 mM glucose + 10% dialyzed FBS, 0.0211 µM
[27] = RPMI 5 mM glucose + 10% dialyzed FBS, 0.0632 µM
[28] = RPMI 5 mM glucose + 10% dialyzed FBS, 0.19 µM
[29] = RPMI 5 mM glucose + 10% dialyzed FBS, 0.569 µM
[30] = RPMI 5 mM glucose + 10% dialyzed FBS, 1.71 µM
[31] = RPMI 5 mM glucose + 10% dialyzed FBS, 5.12 µM
[32] = RPMI 5 mM glucose + 10% dialyzed FBS, 15.4 µM
[33] = RPMI 5 mM glucose + 10% dialyzed FBS, 46.1 µM

For `CC(C)NCC(O)COc1ccc(COCCOC(C)C)cc1` (centres undefined), the cell viability [1] was 110%, the cell viability [2] was 115% and the cell viability [3] was 122%. For the same compound, the cell viability [4] was 103%, the cell viability [5] was 124% and the cell viability [6] was 105%. The cell viability [7] was 129%, the cell viability [8] was 132% and the cell viability [9] was 116%. It also gave a cell viability [10] of 110%, a cell viability [11] of 118% and a cell viability [12] of 106%. It also gave a cell viability [13] of 124%, a cell viability [14] of 130% and a cell viability [15] of 120%. For the same compound, the cell viability [16] was 132%, the cell viability [17] was 118% and the cell viability [18] was 109%. The cell viability [19] was 123%, the cell viability [20] was 121% and the cell viability [21] was 131%. For the same compound, the cell viability [22] was 105%, the cell viability [23] was 123% and the cell viability [24] was 125%. The cell viability [25] was 124%, the cell viability [26] was 115% and the cell viability [27] was 117%. The cell viability [28] was 129%, the cell viability [29] was 118% and the cell viability [30] was 138%. It also gave a cell viability [31] of 106%, a cell viability [32] of 126% and a cell viability [33] of 114%.

In the case of `CC1(C)O[C@@H]2C[C@H]3[C@@H]4CCC5=CC(=O)C=C[C@]5(C)[C@@]4(F)[C@@H](O)C[C@]3(C)[C@]2(C(=O)CO)O1`, the cell viability [1] is reported as 74.9%, the cell viability [2] is reported as 83.6% and the cell viability [3] is reported as 109%. The cell viability [4] was 50.6%, the cell viability [5] was 91.2% and the cell viability [6] was 83.5%. It also gave a cell viability [7] of 6.87%, a cell viability [8] of 30.7% and a cell viability [9] of 14.9%. For the same compound, the cell viability [10] was 14.2%, the cell viability [11] was 26.3% and the cell viability [12] was 76.9%. The cell viability [13] was 97%, the cell viability [14] was 103% and the cell viability [15] was 61.7%. The cell viability [16] was 78.3%, the cell viability [17] was 79.3% and the cell viability [18] was 7.13%. It also gave a cell viability [19] of 22.6%, a cell viability [20] of 45.9% and a cell viability [21] of 17.7%. It also gave a cell viability [22] of 30.4%, a cell viability [23] of 73.1% and a cell viability [24] of 82.4%. For the same compound, the cell viability [25] was 109%, the cell viability [26] was 96.4% and the cell viability [27] was 101%. For the same compound, the cell viability [28] was 75.7%, the cell viability [29] was 7.45% and the cell viability [30] was 20.3%. The cell viability [31] was 47.6%, the cell viability [32] was 11.4% and the cell viability [33] was 19.8%.

In the case of `COc1ccc(CC2NCCc3cc(OC)c(OC)cc32)cc1OC` (centres undefined), the cell viability [1] is reported as 89.6%, the cell viability [2] is reported as 93% and the cell viability [3] is reported as 86.6%. It also gave a cell viability [4] of 85.3%, a cell viability [5] of 65.7% and a cell viability [6] of 94.2%. It also gave a cell viability [7] of 93.3%, a cell viability [8] of 93.7% and a cell viability [9] of 88.4%. For the same compound, the cell viability [10] was 79.5%, the cell viability [11] was 15.4% and the cell viability [12] was 85.2%. It also gave a cell viability [13] of 84%, a cell viability [14] of 82.2% and a cell viability [15] of 97.4%. The cell viability [16] was 82.4%, the cell viability [17] was 99.1% and the cell viability [18] was 88.5%. It also gave a cell viability [19] of 93.5%, a cell viability [20] of 97.5% and a cell viability [21] of 47%. It also gave a cell viability [22] of 12.8%, a cell viability [23] of 85.9% and a cell viability [24] of 78.6%. The cell viability [25] was 90.7%, the cell viability [26] was 87.3% and the cell viability [27] was 71.4%. The cell viability [28] was 98.2%, the cell viability [29] was 105% and the cell viability [30] was 99.9%. It also gave a cell viability [31] of 95.2%, a cell viability [32] of 66.8% and a cell viability [33] of 19.3%.
